Literature values in US20070065359A1, “Nanocells for diagnosis and treatment of diseases and disorders” (priority 2005, published 2007).

Molecular target: TF antigen
Conditions: peptide displayed as a monomer; read-out: affinity for the TF antigen

Sequence: IVWHRWYAWSPASRI [TF antigen-binding peptide, I—V—W—H—R—W—Y-A-W—S—P-A-S—R—I]
- Kd: 600 nM
